Source: paper PMC9971899, “Identification and structural analysis of a carbohydrate-binding module specific to alginate, a representative of a new family, CBM96” (The Journal of Biological Chemistry, 2022)
Values joined by “and” are separate entries in the source; they are usually repeats but may differ in a detail not shown here. Equal entries are not always repeated.

Columns and labels:
TM6-N4 [1] = target: T1, TM6-N4 (Defluviitalea phaphyphila, UniProt A0A4Y5UXE1); assay: Isothermal titration calorimetry (MicroCal PEAQ-ITC) of 20 uM TM6-N4 with 200 uM oligoalginate in 20 mM Tris-HCl pH 7.0 without NaCl at 25 °C, one-site binding model, triplicate for most ligands.; conditions: SD, n = 3
T1 construct: gene Dp0100; TM6-N4 truncation of Dp0100 (187 amino acids, within TM6 segment 1020-1446, without CBM35), His tag, produced in E. coli BL21 (DE3); monomer, Ca2+ in crystal structure
Procedure: (§1) To characterize the binding of TM6-N4 to alginate, isothermal titration calorimetry (ITC) experiments were carried out at 25 °C and pH 7.0, with alginate and oligoalginate standards including G3, G4, G5, G6, G7, M3, M5, M6, and M7 as substrate and TM6-N4 as the enzyme. […] Nevertheless, G3 produced a profile of CBM–ligand interaction (Fig. 2A). It is thus likely that the binding sites of TM6-N4 required at least three uronic acid units to yield stable binding complexes. […] These discrepancies may reflect the fact that one alginate chain has accommodated several protein molecules and the fact of the thermodynamic instability of the long alginate chain.
(§2) Figure 2 Thermograms (upper panels) and binding isotherms with theoretical fits (lower panels) obtained for the binding. G3 (A), G4 (B), G5 (C), G6 (D), G7 (E), M3 (F), M5 (G), M6 (H), M7 (I), and alginate (J) to TM6-N4. The buffer used was 20 mM Tris–HCl buffer, pH 7.0. Protein concentration was 20 μM for TM6-N4.
(§3) The proteins were dialyzed extensively against buffer with 20 mM Tris–HCl (pH 7.0) without NaCl and adjusted concentration to 20 μM, and the oligosaccharide ligands (purity ≥95%; Qingdao BZ Oligo Biotech Co Ltd) or alginate ligands (viscosity >0.02 Pa·s, 1% alginate in H2O at 25 °C) were dissolved in the same buffer to minimize heats of dilution with a concentration of 200 μM. To avoid bubble formation, all the samples were degassed by centrifugation at 12,000 rpm/10 min. Calorimetric titration was performed with MicroCal PEAQ-ITC (Malvern Panalytical). During a titration experiment, the protein sample was stirred at a speed of 750 rpm and kept a constant temperature of 25 °C, and the titration needle was filled with 80 μl oligosaccharide or alginate ligand. Titrations were completed after 19 injections (each 3 μl) at an interval of 150 s. The data were analyzed by using the one-site binding model in the MicroCal PEAQ-ITC Analysis software. The fitted data yielded the dissociation constant (Kd), the number of binding sites on the protein (n), and the enthalpy of binding (ΔH). Other thermodynamic parameters can be calculated by using the standard thermodynamic equation ΔG = −RTln Ka = ΔH-TΔS. Titrations were carried out in triplicate for most ligands, and the errors are the SD of the mean of these replicates.

TM6-N4 [2] = assay: Isothermal titration calorimetry of alginate and oligoalginate binding to TM6-N4; parameters: species or system Defluviitalea phaphyphila; conditions: ITC, 25 °C, pH 7.0; for TΔS: calculated from ΔG = ΔH-TΔS; for ΔG (binding free energy change): calculated from ΔG = −RTln Ka
Procedure: as §1, §2, §3

SMILES	Kd (TM6-N4 [1]) [nM]	ΔH (TM6-N4 [2]) [kcal/mol]	TΔS (TM6-N4 [2]) [kcal/mol]	ΔG (binding free energy change) (TM6-N4 [2])
O=C(O)[C@@H]1O[C@@H](O[C@H]2[C@H](O)[C@H](O)[C@H](O[C@H]3[C@H](O)[C@H](O)C(O)O[C@H]3C(=O)O)O[C@H]2C(=O)O)[C@@H](O)[C@@H](O)[C@@H]1O (stereo partly drawn) [G3, alpha-L-guluronate trisaccharide (triguluronate)]	3100 ± 100			
O=C(O)[C@@H]1O[C@@H](O[C@H]2[C@H](O)[C@H](O)[C@H](O[C@H]3[C@H](O)[C@H](O)C(O)O[C@H]3C(=O)O)O[C@H]2C(=O)O)[C@@H](O)[C@@H](O)[C@@H]1O (some centres unmarked) [G3]		-15.1 ± 3.3	-7.6	-7.5 kcal/mol and -7.5 ± 0.1 kcal/mol
O=C(O)[C@@H]1O[C@@H](O[C@H]2[C@H](O)[C@H](O)[C@H](O[C@H]3[C@H](O)[C@H](O)[C@H](O[C@H]4[C@H](O)[C@H](O)C(O)O[C@H]4C(=O)O)O[C@H]3C(=O)O)O[C@H]2C(=O)O)[C@@H](O)[C@@H](O)[C@@H]1O (stereo partly drawn) [G4, alpha-L-guluronate tetrasaccharide (tetraguluronate)]	600 ± 100			
O=C(O)[C@@H]1O[C@@H](O[C@H]2[C@H](O)[C@H](O)[C@H](O[C@H]3[C@H](O)[C@H](O)[C@H](O[C@H]4[C@H](O)[C@H](O)C(O)O[C@H]4C(=O)O)O[C@H]3C(=O)O)O[C@H]2C(=O)O)[C@@H](O)[C@@H](O)[C@@H]1O (some centres unmarked) [G4]		-7.3 ± 0.2	1.1	-8.4 kcal/mol and -8.4 ± 0.1 kcal/mol
O=C(O)[C@@H]1O[C@@H](O[C@H]2[C@H](O)[C@H](O)[C@H](O[C@H]3[C@H](O)[C@H](O)[C@H](O[C@H]4[C@H](O)[C@H](O)[C@H](O[C@H]5[C@H](O)[C@H](O)C(O)O[C@H]5C(=O)O)O[C@H]4C(=O)O)O[C@H]3C(=O)O)O[C@H]2C(=O)O)[C@@H](O)[C@@H](O)[C@@H]1O (stereo partly drawn) [G5, alpha-L-guluronate pentasaccharide (pentaguluronate)]	500 ± 100			
O=C(O)[C@@H]1O[C@@H](O[C@H]2[C@H](O)[C@H](O)[C@H](O[C@H]3[C@H](O)[C@H](O)[C@H](O[C@H]4[C@H](O)[C@H](O)[C@H](O[C@H]5[C@H](O)[C@H](O)C(O)O[C@H]5C(=O)O)O[C@H]4C(=O)O)O[C@H]3C(=O)O)O[C@H]2C(=O)O)[C@@H](O)[C@@H](O)[C@@H]1O (some centres unmarked) [G5]		-12.3 ± 0.4	-3.6	-8.6 kcal/mol and -8.6 ± 0.1 kcal/mol
O=C(O)[C@@H]1O[C@@H](O[C@H]2[C@H](O)[C@H](O)[C@H](O[C@H]3[C@H](O)[C@H](O)[C@H](O[C@H]4[C@H](O)[C@H](O)[C@H](O[C@H]5[C@H](O)[C@H](O)[C@H](O[C@H]6[C@H](O)[C@H](O)C(O)O[C@H]6C(=O)O)O[C@H]5C(=O)O)O[C@H]4C(=O)O)O[C@H]3C(=O)O)O[C@H]2C(=O)O)[C@@H](O)[C@@H](O)[C@@H]1O (stereo partly drawn) [G6, alpha-L-guluronate hexasaccharide (hexaguluronate)]	20 ± 20			
O=C(O)[C@@H]1O[C@@H](O[C@H]2[C@H](O)[C@H](O)[C@H](O[C@H]3[C@H](O)[C@H](O)[C@H](O[C@H]4[C@H](O)[C@H](O)[C@H](O[C@H]5[C@H](O)[C@H](O)[C@H](O[C@H]6[C@H](O)[C@H](O)C(O)O[C@H]6C(=O)O)O[C@H]5C(=O)O)O[C@H]4C(=O)O)O[C@H]3C(=O)O)O[C@H]2C(=O)O)[C@@H](O)[C@@H](O)[C@@H]1O (some centres unmarked) [G6]		-8.6 ± 0.4	1.9	-10.5 kcal/mol and -10.5 ± 0.1 kcal/mol
O=C(O)[C@@H]1O[C@@H](O[C@H]2[C@H](O)[C@H](O)[C@H](O[C@H]3[C@H](O)[C@H](O)[C@H](O[C@H]4[C@H](O)[C@H](O)[C@H](O[C@H]5[C@H](O)[C@H](O)[C@H](O[C@H]6[C@H](O)[C@H](O)[C@H](O[C@H]7[C@H](O)[C@H](O)C(O)O[C@H]7C(=O)O)O[C@H]6C(=O)O)O[C@H]5C(=O)O)O[C@H]4C(=O)O)O[C@H]3C(=O)O)O[C@H]2C(=O)O)[C@@H](O)[C@@H](O)[C@@H]1O (stereo partly drawn) [G7, alpha-L-guluronate heptasaccharide (heptaguluronate)]	300 ± 70			
O=C(O)[C@@H]1O[C@@H](O[C@H]2[C@H](O)[C@H](O)[C@H](O[C@H]3[C@H](O)[C@H](O)[C@H](O[C@H]4[C@H](O)[C@H](O)[C@H](O[C@H]5[C@H](O)[C@H](O)[C@H](O[C@H]6[C@H](O)[C@H](O)[C@H](O[C@H]7[C@H](O)[C@H](O)C(O)O[C@H]7C(=O)O)O[C@H]6C(=O)O)O[C@H]5C(=O)O)O[C@H]4C(=O)O)O[C@H]3C(=O)O)O[C@H]2C(=O)O)[C@@H](O)[C@@H](O)[C@@H]1O (some centres unmarked) [G7]		-14.2 ± 0.4	-5.4	-8.9 kcal/mol and -8.9 ± 0.1 kcal/mol

Second part, the molecule after the results:

Kd (TM6-N4 [1]) [nM]	ΔH (TM6-N4 [2]) [kcal/mol]	TΔS (TM6-N4 [2]) [kcal/mol]	ΔG (binding free energy change) (TM6-N4 [2])	SMILES
1200 ± 600				O=C(O)[C@H]1O[C@@H](O[C@H]2[C@H](O)[C@H](O)[C@H](O[C@H]3[C@H](O)[C@H](O)[C@H](O[C@H]4[C@H](O)[C@H](O)[C@H](O[C@H]5[C@H](O)[C@H](O)C(O)O[C@@H]5C(=O)O)O[C@@H]4C(=O)O)O[C@@H]3C(=O)O)O[C@@H]2C(=O)O)[C@@H](O)[C@@H](O)[C@@H]1O (stereo partly drawn) [M5, mannuronate pentasaccharide (beta-D-mannuronate pentasaccharide)]
	-8.6 ± 1.2	-0.6	-8.1 kcal/mol and -8.1 ± 0.1 kcal/mol	O=C(O)[C@H]1O[C@@H](O[C@H]2[C@H](O)[C@H](O)[C@H](O[C@H]3[C@H](O)[C@H](O)[C@H](O[C@H]4[C@H](O)[C@H](O)[C@H](O[C@H]5[C@H](O)[C@H](O)C(O)O[C@@H]5C(=O)O)O[C@@H]4C(=O)O)O[C@@H]3C(=O)O)O[C@@H]2C(=O)O)[C@@H](O)[C@@H](O)[C@@H]1O (some centres unmarked) [M5, mannuronate pentasaccharide]
60 ± 60				O=C(O)[C@H]1O[C@@H](O[C@H]2[C@H](O)[C@H](O)[C@H](O[C@H]3[C@H](O)[C@H](O)[C@H](O[C@H]4[C@H](O)[C@H](O)[C@H](O[C@H]5[C@H](O)[C@H](O)[C@H](O[C@H]6[C@H](O)[C@H](O)C(O)O[C@@H]6C(=O)O)O[C@@H]5C(=O)O)O[C@@H]4C(=O)O)O[C@@H]3C(=O)O)O[C@@H]2C(=O)O)[C@@H](O)[C@@H](O)[C@@H]1O (stereo partly drawn) [M6, beta-D-mannuronate hexasaccharide (hexamannuronate)]
	-3.5 ± 0.3	6.4	-9.9 kcal/mol and -9.9 ± 0.1 kcal/mol	O=C(O)[C@H]1O[C@@H](O[C@H]2[C@H](O)[C@H](O)[C@H](O[C@H]3[C@H](O)[C@H](O)[C@H](O[C@H]4[C@H](O)[C@H](O)[C@H](O[C@H]5[C@H](O)[C@H](O)[C@H](O[C@H]6[C@H](O)[C@H](O)C(O)O[C@@H]6C(=O)O)O[C@@H]5C(=O)O)O[C@@H]4C(=O)O)O[C@@H]3C(=O)O)O[C@@H]2C(=O)O)[C@@H](O)[C@@H](O)[C@@H]1O (some centres unmarked) [M6]
200 ± 100				O=C(O)[C@H]1O[C@@H](O[C@H]2[C@H](O)[C@H](O)[C@H](O[C@H]3[C@H](O)[C@H](O)[C@H](O[C@H]4[C@H](O)[C@H](O)[C@H](O[C@H]5[C@H](O)[C@H](O)[C@H](O[C@H]6[C@H](O)[C@H](O)[C@H](O[C@H]7[C@H](O)[C@H](O)C(O)O[C@@H]7C(=O)O)O[C@@H]6C(=O)O)O[C@@H]5C(=O)O)O[C@@H]4C(=O)O)O[C@@H]3C(=O)O)O[C@@H]2C(=O)O)[C@@H](O)[C@@H](O)[C@@H]1O (stereo partly drawn) [M7, beta-D-mannuronate heptasaccharide (heptamannuronate)]
	-4.2 ± 0.8	5.2	-9.3 kcal/mol and -9.3 ± 0.1 kcal/mol	O=C(O)[C@H]1O[C@@H](O[C@H]2[C@H](O)[C@H](O)[C@H](O[C@H]3[C@H](O)[C@H](O)[C@H](O[C@H]4[C@H](O)[C@H](O)[C@H](O[C@H]5[C@H](O)[C@H](O)[C@H](O[C@H]6[C@H](O)[C@H](O)[C@H](O[C@H]7[C@H](O)[C@H](O)C(O)O[C@@H]7C(=O)O)O[C@@H]6C(=O)O)O[C@@H]5C(=O)O)O[C@@H]4C(=O)O)O[C@@H]3C(=O)O)O[C@@H]2C(=O)O)[C@@H](O)[C@@H](O)[C@@H]1O (some centres unmarked) [M7]
